Assay results published in US12509482B2, “3′-ketoglycoside compound for the slow release of a volatile alcohol” (GLYCOSCIENCE, S.L., priority 2020, dated 2025).
Where a name gives a salt, the structure may show the parent alone. Each block holds one compound with its values, some of them ahead of it.

How the values were obtained:
Assay type in all cases: physicochemical
[1] = Example 29: release of phenol from phenyl-O-β-D-3′-keto-6′-sulphatoglucopyranoside pyridinium salt, 0.1 M deuterated phosphate buffer, 15% D6-DMSO, 32° C.
Procedure: In this example the rate of release of phenol from ((2R,3R,5S,6S)-3,5-dihydroxy-4-oxo-6-phenoxytetrahydro-2H-pyran-2-yl)methyl hydrogen sulfate pyridinium salt (phenyl-O-β-D-3′-keto-6′-sulphatoglucopyranoside pyridinium salt) in 0.1 M deuterated phosphate buffer solutions of differing pH containing 15% D6-DMSO was determined.
(§1) 0.1 M of pH 5.8 and 7.4 stock buffered solutions of sodium dihydrogen phosphate and disodium hydrogen phosphate were prepared in deuterated water (D2O).
A stock solution of 20 mg of phenyl-O-β-D-3′-keto-6′-sulphatoglucopyranoside in 0.5 mL of D6-DMSO were prepared.
(§2) To two parallel reaction vials, where indicated in the reaction table below, was added 0.10 mL of the glycoside substrate solutions in D6-DMSO and 0.60 mL of low or high pH 0.1M phosphate buffer in D2O and the mixtures incubated by shaking at 32° C. After times indicated in table below, the mixtures where analysed by ^1H-NMR in a 400 MHz instrument.

[2] = Example 28: release of methanol from methyl-β-3′-ketoglucuronide methyl ester, 0.1 M deuterated phosphate buffer, 10% D6-DMSO, 32° C.
Procedure: In this example the rate of release of methanol from methyl (2R,3R,5S,6S)-3,5-dihydroxy-6-methoxy-4-oxotetrahydro-2H-pyran-2-carboxylate (methyl-β-3′-ketoglucuronide methyl ester) in D2O containing 10% D6-DMSO or in 0.1 M deuterated phosphate buffer solutions of differing pH containing 10% D6-DMSO or in D2O was determined.
as §1
A stock solution of 20 mg of methyl-β-3′-ketoglucuronide methyl ester in 0.25 mL of D6-DMSO were prepared.
as §2, with “0.05” for “0.10”, “0.55” for “0.60”

[3] = Example 20: release of (S)-α-terpineol from (S)-α-terpineol-O-β-D-3′-ketoglucopyranoside, 0.1 M deuterated phosphate buffer, 33% D6-DMSO, 32° C.
Procedure: In this example the rate of release of (S)-α-terpineol from (2R,3R,5S)-3,5-dihydroxy-2-(hydroxymethyl)-6-((5-(2-hydroxypropan-2-yl)-2-methylcyclohexyl)oxy) tetrahydro-4H-pyran-4-one ((S)-α-terpineol-O-β-D-3′-ketoglucopyranoside) in 0.1 M deuterated phosphate buffer solutions of differing pH containing 33% D6-DMSO was determined.
as §1
A stock solution of 10 mg of (S)-α-terpineol-O-β-D-3′-ketoglucopyranoside in 0.5 mL of D6-DMSO were prepared.
as §2, with “0.20” for “0.10”, “0.40” for “0.60”

[4] = Description: alcohol release from model compounds (III), (IV) and compound (V) in buffer, water and skin washings; settings: 20 mg/mL mixture; after 3 d
[5] = Example 15: release of carvacrol from carvacrol-O-β-D-3′-ketoglucopyranoside, 0.1 M deuterated phosphate buffer, 20% D6-DMSO, 32° C.
Procedure: In this example the rate of release of carvacrol from ((2R,3R,5S)-3,5-dihydroxy-2-(hydroxymethyl)-6-(5-isopropyl-2-methylphenoxy)tetrahydro-4H-pyran-4-one (carvacrol-O-β-D-3′-ketoglucopyranoside) in 0.1 M deuterated phosphate buffer solutions of differing pH containing 20% D6-DMSO was determined. 0.1 M of pH 5.8 and 7.4 stock buffered solutions of sodium dihydrogen phosphate and disodium hydrogen phosphate were prepared in deuterated water (D2O).
A stock solution of 15 mg of carvacrol-O-β-D-3′ketoglucopyranoside in 1.0 mL of D6-DMSO were prepared.
as §2, with “was added 0.20 mL of” for “was added 0.10 mL of”, “D6-DMSO and […] of” for “D6-DMSO and 0.60 mL of”, “buffer in D2O or D2O and” for “buffer in D2O and”

[6] = Example 13: release of 4-nitrophenol from substrate A (4-nitrophenyl-O-β-D-3′-ketoglucopyranoside) vs substrate B (4-nitrophenyl-O-β-D-glucopyranoside), 0.1 M deuterated phosphate buffer or water, 10% D6-DMSO, room temperature; settings: for composition by 1H-NMR (aromatic signals): approximately 26 h
Procedure: In this example, 4-nitrophenyl-O-β-D-3′-ketoglucopyranoside and 4-nitrophenyl-O-beta-D-glucopyranoside were used as model compounds to determine the rate of release of an aromatic alcohol (4-nitrophenol) under different conditions.
Rate of release of 4-nitrophenol from (2R,3R,5S,6S)-3,5-dihydroxy-2-(hydroxymethyl)-6-(4-nitrophenoxy)tetrahydro-4H-pyran-4-one (4-nitrophenyl-O-β-D-3′-ketoglucopyranoside) was determined in comparison to (2R,3S,4S,5R,6S)-2-(hydroxymethyl)-6-(4-nitrophenoxy)tetrahydro-2H-pyran-3,4,5-triol (para-nitrophenyl-O-β-D-glucopyranoside) in 0.1 M deuterated phosphate buffer solutions of differing pH containing 10% D6-DMSO or in water containing 10% D6-DMSO at room temperature.
1 M Stock solutions of sodium dihydrogen phosphate and disodium hydrogen phosphate were prepared in deuterated water (D2O). Stock solutions of 25 mg of 4-nitrophenyl-O-β-D-3′-ketoglucopyranoside (substrate A), 25 mg of 4-nitrophenyl-O-β-D-glucopyranoside (substrate B) in 0.5 mL of D6-DMSO were each prepared and a stock solution of 11 mg of 4-nitrophenol in the same volume of D6-DMSO for visual comparison.
Solutions of pH 4.5, 5.8, 7.4 and 9.5 were prepared by dilution of the appropriate individual or mixture of stock phosphate salt solutions to 0.1 M using a calibrated pH meter.
To ten parallel reaction vials was added 0.05 mL of one of the glycoside substrate stock solutions in D6-DMSO, 0.5 mL of the appropriate deuterated buffer solution or 0.5 mL of water were indicated in Table I below. The reaction vials were allowed to stand at room temperature and the colour of the solutions recorded by visual observation relative to the colour of authentic 4-nitrophenol solutions diluted in the same way, as shown in Table I:
After approximately 26 h, reactions 2 to 5 were all analysed by ^1H-NM R using 128 scans on a 400 MHz instrument.

[7] = Example 22: competitive release of para-nitrophenol from an approximately equimolar solution of 4-nitrophenyl-O-β-D- and -O-α-D-3′-ketoglucopyranoside, 32° C., 1H NMR integrals
Excerpt: In this example the competitive rate of release of para-nitrophenol from an approximately equimolar solution of (2R,5S,6S)-3,5-dihydroxy-2-(hydroxymethyl)-6-(4-nitrophenoxy)tetrahydro-4H-pyran-4-one (4-nitrophenyl-O-β-D-3′-ketoglucopyranoside) and (2R,5S,6S)-3,5-dihydroxy-2-(hydroxymethyl)-6-(4-nitrophenoxy)tetrahydro-4H-pyran-4-one (4-nitrophenyl-O-α-D-3′-ketoglucopyranoside) in D2O containing 1.5% D6-DMSO or in 0.1 M deuterated phosphate buffer, pH 5.8 containing 1.5% D6-DMSO or in D2O was determined.
A solution containing approximately 2 mg each of 4-nitrophenyl-O-β-D-3′-ketoglucopyranoside and 4-nitrophenyl-O-α-D-3′-ketoglucopyranoside was prepared in 1 mL of D2O containing 3.3% v/v D6-DMSO. To two 0.375 mL portions of the resultant solution was added either D2O (0.5 mL) or 0.1M sodium phosphate buffer, pH 5.8 (0.5 mL) to given reactions 1 and 2 respectively. The resultant mixtures were analysed by ^1H NMR directly following preparation then incubated at 32° C./80 rpm and periodically analysed by ^1H NMR at recorded time points.
The change in the ratio between the integrals of the anomeric protons of each ketoglucoside and between the were sum of the anomeric protons and the anomeric protons of each ketoglucoside with time are shown in Table IX: […]

phenol release (in words) ([1]; 32° C.): generates phenol at pH 7.4
% Conversion by 1H-NMR ([1]; Reaction 1, pH 5.8, 0 h): 1%
% Conversion by 1H-NMR ([1]; Reaction 1, pH 5.8, 5 h): 2%
% Conversion by 1H-NMR ([1]; Reaction 1, pH 5.8, 20 h): 2%
% Conversion by 1H-NMR ([1]; Reaction 1, pH 5.8, 100 h): 2%
% Conversion by 1H-NMR ([1]; Reaction 2 (0.60 mL of pH 5.8 buffer), 0 h): 4%
% Conversion by 1H-NMR ([1]; Reaction 2 (0.60 mL of pH 5.8 buffer), 5 h): 15%
% Conversion by 1H-NMR ([1]; Reaction 2 (0.60 mL of pH 5.8 buffer), 20 h): 38%
% Conversion by 1H-NMR ([1]; Reaction 2 (0.60 mL of pH 5.8 buffer), 100 h): 84%
SMILES: O=C1[C@@H](O)[C@H](Oc2ccccc2)O[C@H](COS(=O)(=O)O)[C@H]1O [((2R,3R,5S,6S)-3,5-dihydroxy-4-oxo-6-phenoxytetrahydro-2H-pyran-2-yl)methyl hydrogen sulfate pyridinium salt]

% Conversion by 1H-NMR ([2]; pH 5.8, 0 h): 0%
% Conversion by 1H-NMR ([2]; pH 5.8, 5 h): 2%
% Conversion by 1H-NMR ([2]; pH 5.8, 20 h): 7%
% Conversion by 1H-NMR ([2]; pH 5.8, 163 h (printed under the 72 h column)): 23%
% Conversion by 1H-NMR ([2]; pH 7.4, 0 h): 0%
% Conversion by 1H-NMR ([2]; pH 7.4, 5 h): 15%
% Conversion by 1H-NMR ([2]; pH 7.4, 20 h): 38%
% Conversion by 1H-NMR ([2]; pH 7.4, 72 h): 100%
SMILES: COC(=O)[C@H]1OC(OC)[C@H](O)C(=O)[C@@H]1O (stereo in doubt) [methyl-β-3′-ketoglucuronide methyl ester, methyl (2S,3R,5S,6S)-3,5-dihydroxy-6-methoxy-4-oxotetrahydro-2H-pyran-2-carboxylate]
methanol release (in words) ([2]; 32° C.): generates methanol at both pH 5.8 and pH 7.4

% Conversion by 1H-NMR ([3]; pH 5.8, 0 h): 0%
% Conversion by 1H-NMR ([3]; pH 5.8, 3 h): 0%
% Conversion by 1H-NMR ([3]; pH 5.8, 20 h): 0%
% Conversion by 1H-NMR ([3]; pH 5.8, 95 h): 0%
% Conversion by 1H-NMR ([3]; pH 7.4, 0 h): 0%
% Conversion by 1H-NMR ([3]; pH 7.4, 3 h): 5%
% Conversion by 1H-NMR ([3]; pH 7.4, 20 h): 28%
% Conversion by 1H-NMR ([3]; pH 7.4, 95 h): 77%
% Conversion by 1H-NMR ([3]; pH 7.4, column head 167): 85%
SMILES: CC1=CC[C@@H](C(C)(C)O[C@@H]2O[C@H](CO)[C@@H](O)C(=O)[C@H]2O)CC1 [(2R,3R,5S,6S)-3,5-dihydroxy-2-(hydroxymethyl)-6-((2-((S)-4-methylcyclohex-3-en-1-yl)propan-2-yl)oxy)tetrahydro-4H-pyran-4-one]
pH dependence of (S)-α-terpineol release (in words) ([3]; 32° C.): only slowly degraded at pH 5.8, but releases (S)-α-terpineol at a significantly higher rate at pH 7.4

aroma of geraniol on opening the stoppered reaction vessel [4]: not present
SMILES: CC(C)=CCC/C(C)=C/CO[C@@H]1O[C@H](CO)[C@@H](O)[C@H](O)[C@H]1O [geranyl-O-β-D-glucopyranoside]

% Conversion by 1H-NMR ([5]; pH 5.8, 1 h): 2%
% Conversion by 1H-NMR ([5]; pH 5.8, 5 h): <5%
% Conversion by 1H-NMR ([5]; pH 5.8, 23 h): <5%
% Conversion by 1H-NMR ([5]; pH 5.8, 69 h): <5%
% Conversion by 1H-NMR ([5]; pH 7.4, 1 h): 8%
% Conversion by 1H-NMR ([5]; pH 7.4, 5 h): 14%
% Conversion by 1H-NMR ([5]; pH 7.4, 23 h): 83%
% Conversion by 1H-NMR ([5]; pH 7.4, 69 h): 100%
SMILES: Cc1ccc(C(C)C)cc1O[C@@H]1O[C@H](CO)[C@@H](O)C(=O)[C@H]1O [carvacrol-O-β-D-3′-ketoglucopyranoside, (2R,3R,5S,6S)-3,5-dihydroxy-2-(hydroxymethyl)-6-(5-isopropyl-2-methylphenoxy)tetrahydro-4H-pyran-4-one]
pH dependence of carvacrol release (in words) ([5]; 32° C.): only slowly degraded at pH 5.8, but releases carvacrol at a significantly higher rate at pH 7.4

composition by 1H-NMR (aromatic signals) ([6]; reaction 2, pH 4.5): only starting material
ratio of the sum of aromatic/β-ketoglucoside proton integrals ([7]; Reaction 1, D2O, 0 h): 6.8
ratio of the sum of aromatic/β-ketoglucoside proton integrals ([7]; Reaction 1, D2O, 20 h): 8.3
ratio of the sum of aromatic/β-ketoglucoside proton integrals ([7]; Reaction 1, D2O, 45 h): 8.8
ratio of the sum of aromatic/β-ketoglucoside proton integrals ([7]; Reaction 1, D2O, 143 h): 8.3
ratio of the sum of aromatic/β-ketoglucoside proton integrals ([7]; Reaction 2, 0.1M sodium phosphate buffer, pH 5.8, 0 h): 6.6
ratio of the sum of aromatic/β-ketoglucoside proton integrals ([7]; Reaction 2, 0.1M sodium phosphate buffer, pH 5.8, 20 h): 7.2
ratio of the sum of aromatic/β-ketoglucoside proton integrals ([7]; Reaction 2, 0.1M sodium phosphate buffer, pH 5.8, 45 h): 9.7
ratio of the sum of aromatic/β-ketoglucoside proton integrals ([7]; Reaction 2, 0.1M sodium phosphate buffer, pH 5.8, 143 h): 10.6
SMILES: O=C1[C@@H](O)[C@H](Oc2ccc([N+](=O)[O-])cc2)O[C@H](CO)[C@H]1O [(2R,5S,6S)-3,5-dihydroxy-2-(hydroxymethyl)-6-(4-nitrophenoxy)tetrahydro-4H-pyran-4-one]
composition by 1H-NMR (aromatic signals) ([6]; reaction 3, pH 5.8): a mixture to starting material and 4-nitrophenol
composition by 1H-NMR (aromatic signals) ([6]; reaction 4, pH 7.4): almost entirely 4-nitrophenol with a trace of starting material
composition by 1H-NMR (aromatic signals) ([6]; reaction 5, pH 9.5): almost entirely 4-nitrophenol with a trace of starting material
4-nitrophenol release (in words) ([6]; varying solution pH, room temperature, 0.5 mL of aqueous solution): from no release at low pH to the delivery of μg quantities of 4-nitrophenol per minute
